In series [1] the test system is SHP-1 expression. The series can be described thus: SHP-1 expression in primary human hepatocytes (Northern blot). The series is classed as cell-based. To be noted: 48 hours; GW4064 0.1-10 μM, chenodeoxycholic acid 1-100 μM. The procedure: (§1) Control cultures received vehicle alone. Cells were cultured for a further 48 hours prior to harvest and total RNA isolated using a commercially available reagent (Trizol, Life Technologies Inc., Gaithersburg, Md.) according to the manufacturer's instructions. Total RNA (10 μg) was resolved on a 1% agarose/2.2 M formaldehyde denaturing gel and transferred to a nylon membrane (Hybond N+, Amersham Pharmacia Biotech Inc., Piscataway, N.J.). Blots were hybridized with ^32p-labeled cDNAs corresponding to human SHP-1, human CYP7A (bases 99 to 1564, GenBank M93133), mouse SHP-1 (bases 30 to 783, GenBank L76567), or rat CYP7A (bases 235 to 460, GenBank J05460). The SHP-1 cDNA used in these experiments encodes the full-length human SHP-1 protein (amino acids 1-260) as described in Seol et al. (1996 Science 272:1336), Subsequently, blots were stripped and reprobed with a radiolabeled -actin cDNA (Clontech, Palo Alto, Calif.).

Series [2] has as its system CYP7A expression. The series can be described thus: CYP7A expression in primary human hepatocytes (Northern blot). Format: cell-based. To be noted: 48 hours; GW4064 0.1-10 μM, chenodeoxycholic acid 1-100 μM. The procedure:
as §1, with “Primary human hepatocytes and rat hepatocytes (1.5×10^6 cells) were cultured on […]-coated six well plates in serum-free Williams' E medium supplemented with 100 nM dexamethasone, 100 U/ml penicillin G, 100 μg/ml streptomycin, and insulin-transferrin-selenium (ITS-G, Life Technologies, Inc., Gaithersburg, Md.). […] Control” for “Control”

The next series has as its system rat SHP-1 promoter. As to the kind of experiment: SHP-1 promoter reporter in HepG2 cells transfected with FXR expression plasmid. The series is classed as cell-based.
For another series, the target named is T1, rodent FXR (Mus musculus, UniProt Q60641).
T1 construct: expressed in transfected cells; host or cells: CV-1
T1 sequence (Q60641 1-488): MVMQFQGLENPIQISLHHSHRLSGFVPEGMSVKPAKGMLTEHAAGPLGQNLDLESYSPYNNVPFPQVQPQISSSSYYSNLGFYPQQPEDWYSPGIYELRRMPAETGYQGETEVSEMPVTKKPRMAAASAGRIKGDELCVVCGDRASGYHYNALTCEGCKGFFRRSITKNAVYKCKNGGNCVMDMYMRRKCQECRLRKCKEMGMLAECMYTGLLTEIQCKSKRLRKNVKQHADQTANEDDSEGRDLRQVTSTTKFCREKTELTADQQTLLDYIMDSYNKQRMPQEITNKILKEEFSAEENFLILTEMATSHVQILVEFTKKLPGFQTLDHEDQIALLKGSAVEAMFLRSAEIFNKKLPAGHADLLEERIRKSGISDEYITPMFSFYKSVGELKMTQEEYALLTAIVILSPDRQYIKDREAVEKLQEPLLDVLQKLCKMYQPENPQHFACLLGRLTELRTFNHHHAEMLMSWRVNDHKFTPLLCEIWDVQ
The series can be described thus: FXR transactivation in transfected CV-1 cells, hsp70 ecdysone receptor response element reporter. Format: cell-based. An excerpt:
The full-length coding regions for human LRH-1 (GenBank AB019246) and human SHP-1 (GenBank L76571) were amplified by PCR and cloned into pSG5, creating pSG5-hLRH-1 and pSG5-hSHP-1, respectively. A consensus Kozak sequence was created during amplification. […] Underlined residues are those which have been mutated from the wild-type sequence. […] VP16-nuclear receptor chimeras contained the 80-amino acid herpes virus VP16 transactivation domain linked to the nuclear receptor ligand binding domain in a modified pSG5 expression vector.
Transient transfection of CV-1 cells was performed as described previously (Jones, S. A. et al. 2000. Mol. Endocrinol. 14:27-39). Typically, transfection mixes contained 2-5 ng receptor expression vector, 20 ng reporter construct, and 8 ng p -actin-SPAP. The amount of DNA used in each transfection was adjusted to 80 ng with carrier plasmid (pBluescript, Stratagene, La Jolla, Calif.). Cells were maintained for 24 hours in the presence of drug (added as a 1000× stock in dimethyl sulfoxide) in DMEM/F-12 nutrient mixture containing 10% charcoal-stripped, delipidated calf serum. An aliquot of medium was assayed for SPAP activity and the cells lysed prior to determination of luciferase expression. Luciferase activities were normalized to SPAP. […]

The test system of series [3] is SHP-1 expression. As to the kind of experiment: Liver SHP-1 expression in treated rats. Format: in vivo, rat. The settings on record: 30 mg/kg by gavage twice a day for 7 days. The procedure:
Direct regulation of SHP-1 by FXR was confirmed in experiments in HepG2 cells transfected with an FXR expression plasmid and reporter plasmids under the control of either the rat or human SHP-1 promoter.
(§2) Male Fisher rats were obtained from Charles River Laboratories Inc. (Raleigh, N.C.) and maintained on a 12 hour light/12 hour dark cycle. Animals were allowed food and chow ad libitum. […] Livers were excised and snap-frozen in liquid nitrogen. Differential gene expression analysis was performed by Curagen Corp. (New Haven, Conn.).

Series [4] relates to CYP7A expression. As to the kind of experiment: Liver CYP7A expression in treated rats. Format: in vivo, rat. The settings on record: 30 mg/kg by gavage twice a day for 7 days. The procedure: This decrease was still measurable despite the fact that the animals had been maintained on a normal light cycle and sacrificed during the daytime when CYP7A levels are known to be quite low.
as §2

The test system of series [5] is SHP-1 expression. The series can be described thus: SHP-1 expression in primary rat hepatocytes (Northern blot). The series is classed as cell-based. To be noted: 48 hours; GW4064 0.1-10 μM. The procedure: as §1, with “Primary human hepatocytes and rat hepatocytes (1.5×10^6 cells) were cultured on […]-coated six well plates in serum-free Williams' E medium supplemented with 100 nM dexamethasone, 100 U/ml penicillin G, 100 μg/ml streptomycin, and insulin-transferrin-selenium (ITS-G, Life Technologies, Inc., Gaithersburg, Md.). […] Control” for “Control”

In another series the test system is human SHP-1 promoter. The series can be described thus: SHP-1 promoter reporter in HepG2 cells transfected with FXR expression plasmid. The series is classed as cell-based.

Entries after “also recorded” stand apart in the source; their conditions may differ.

Take `C[C@H](CCC(=O)O)[C@H]1CC[C@H]2[C@@H]3[C@H](O)C[C@@H]4C[C@H](O)CC[C@]4(C)[C@H]3CC[C@]12C` [chenodeoxycholic acid, reference compound]: in the series on SHP-1 expression [1], the “SHP-1 expression in human hepatocytes” value is “much less potent than GW4064”. In the series with CYP7A expression [2], the “CYP7A expression in human hepatocytes” value is “repressed CYP7A expression at the same concentrations that were required for induction of SHP-1 expression”.
`CC(C)c1onc(-c2c(Cl)cccc2Cl)c1COc1ccc(/C=C/c2cccc(C(=O)O)c2)c(Cl)c1` [GW4064]: the “reporter activity, rat SHP-1 promoter” value in the series on rat SHP-1 promoter is on record as “marked induction of reporter activity”. Also, the EC50 at rodent FXR was found to be 80 nM. The “SHP-1 expression in human hepatocytes” value in the series with SHP-1 expression [1] is reported as “markedly increased SHP-1 expression in a dose-dependent manner”. In the series on SHP-1 expression [3], the “SHP-1 expression in liver RNA versus vehicle-treated rats” value was “six-fold increase”. For the same molecule, the “CYP7A expression levels versus vehicle treated rats” value in the series on CYP7A expression [4] is on record as “decrease in CYP7A expression levels”. The “SHP-1 expression in rat hepatocytes” value with SHP-1 expression [5] is “markedly increased SHP-1 expression in a dose-dependent manner”. Further, the “reporter activity, human SHP-1 promoter” value in the series with human SHP-1 promoter is “marked induction of reporter activity”. Moreover, the “CYP7A expression in human hepatocytes” value with CYP7A expression [2] is on record as “decrease CYP7A expression in a dose dependent fashion; also recorded: repressed CYP7A expression at the same concentrations that were required for induction of SHP-1 expression”.

The values are drawn from US20040038862A1, “Identification of new therapeutic targets for modulating bile acid synthesis” (priority 2003, published 2004).
